Measurements from patent US7262177B2, “Conjugates of glycosylated/galactosylated peptide, bifunctional linker, and nucleotidic monomers/polymers, and related compositions and methods of use” (priority 2000, dated 2007).

Tests used:
[1] = system: Hep G2 human hepatoma xenografts; experiment: Bioefficacy against human hepatoma (Hep G2) xenografts in nude mice; type: in vivo, CD-1 nude mice
From the text: Xenotransplanted tumors have been previously shown to be responsive to 5FU chemotherapy as assayed by direct physical measurement of the tumor (Houghton et al., Biochem. Pharmacol., 36, 1285-1289 (1987)), histological changes and biochemical measurements, such as alpha-fetoprotein (AFP) levels (Lemoine et al., Pathol. Biol. (Paris), 47, 903-910 (1999)) and thymidylate synthase levels (Peters et al., J. Clin Oncol., 12, 2035-2042 (1994)). The xenograft tumors in nude mice are a widely used model for tumor studies that allows for direct measurement of the growth of human tumors. Male CD-1 nude mice (6-8 weeks old, 20-22 g in weight) were used for these bioefficacy studies. An injection of 10^8 Hep G2 cells was made subcutaneously into the subcapsular region of each mouse. Mice were observed daily for tumor formation. After tumors emerged, they were measured twice a week in two dimensions with sliding calipers. When the tumors reached a weight of 100 mg in weight as determined by the formula: [(weight, mg)=(length (mm)×width (mm))^2/2], treatment was initiated (Geran et al., Cancer Chemother. Rep., 3, 51-61 (1972)). Initially, mice were treated with 10 mg/kg dose once/week for 8 weeks. Subsequently, separate cohorts of mice were treated with 15 mg/kg weekly for 8 weeks and finally 10 mg/kg twice weekly for 8 weeks. The impact of treatment upon tumor growth was judged by direct measurement as described above. In addition, tumor progression was tracked by serological measurements, such as AFP levels. AFP levels were assayed weekly following each injection. Blood was taken retro-orbitally from each mouse. AFP levels were assayed immunochemically, using kits supplied by Abbott Laboratories (Waukegan, Ill.) and based on the methods of Wang et al. (Cancer Res., 50, 869s-872s (1990)). Measurements of AFP levels were intended to complement direct physical measurement as an indicator of tumor progression. Generally, serum AFP levels behave as if they reflect tumor mass. However, it should be noted that moderately raised AFP levels have been found in some patients with uncomplicated liver disease. Despite these false positives, serum AFP levels have been successfully used to monitor response to therapy (Johnson, J. Gastroent Hepatol., 14 (Suppl.), s32-s36 (1999)) especially in the tumor-bearing nude mice, where the human tumor is the only source of human AFP. Results from such assays provide an early indication of HCC potential before it is manifested as physical tumor growth. The data generated by the above experiments should aid in the derivation of starting doses for larger mammal testing and subsequent clinical studies.

[2] = molecular target: T1, TS (Homo sapiens, UniProt P04818); experiment: TS activity in tumor of xenografted mice; type: in vivo, CD-1 nude mice; conditions: treated
T1 construct: from tissue; host or cells: subcutaneous Hep G2 xenograft tumour from CD-1 nude mice
T1 sequence (P04818 2-313 limits assumed): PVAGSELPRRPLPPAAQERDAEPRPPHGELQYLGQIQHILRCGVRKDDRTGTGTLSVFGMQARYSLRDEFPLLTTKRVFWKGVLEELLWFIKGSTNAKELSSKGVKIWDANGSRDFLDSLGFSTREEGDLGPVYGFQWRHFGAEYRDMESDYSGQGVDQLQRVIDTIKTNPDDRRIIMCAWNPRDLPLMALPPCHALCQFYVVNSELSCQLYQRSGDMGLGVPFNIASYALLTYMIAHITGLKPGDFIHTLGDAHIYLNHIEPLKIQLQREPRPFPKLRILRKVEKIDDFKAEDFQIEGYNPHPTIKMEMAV
Procedure: Initial effects of po 1-mer treatment were noticed after about 5 weeks. Overall, however, tumors continued to grow after this point, but at a slower rate than the control. For instance, at 8 weeks post po 1-mer treatment, the average tumor weight of xenografted human hepatomas in nude CD-1 mice was about 7 g, whereas the average tumor weight of the saline control was about 15 g. Histological analysis was performed after 8 weeks in order to compare the tumors of the control cohort with the tumors of po 1-mer-treated nude mice. […] This weight loss may then be due to the tumor burden, rather than the therapeutic treatment, and was continued through week 8.
After the treatment was completed, tumors were analyzed both histologically and for TS activity. […] Therefore, it can be deduced that increasing the dose of po 1-mer increased the efficacy without increasing systemic toxicity.

[3] = 10 mg/kg twice weekly, after 3 weeks

For `CC(=O)N[C@H]1[C@H](OCCCCCCNC(=O)CC[C@H](NC(=O)CC[C@H](NC(=O)[C@H](Cc2ccc(O)cc2)NC(=O)C2CCC(CN3C(=O)CC(SCCCCCCOP(=O)(O)OC[C@H]4O[C@@H](n5cc(F)c(=O)[nH]c5=O)C[C@@H]4O)C3=O)CC2)C(=O)NCCCCCCO[C@@H]2O[C@H](CO)[C@H](O)[C@H](O)[C@H]2NC(C)=O)C(=O)NCCCCCCO[C@@H]2O[C@H](CO)[C@H](O)[C@H](O)[C@H]2NC(C)=O)O[C@H](CO)[C@H](O)[C@@H]1O` (stereo partly drawn) [po 1-mer, YEE(ahGalNAc)3-SMCC-poFU], the body weight [1, 3] was “moderate reduction in body weight”, the tumor progression [1, 3] was “significant reduction in tumor progression” and the tumors ([1]; 10 mg/kg twice weekly, after 6 weeks) was “beyond detection”. For the same compound, the “effect on tumor growth” value ([1]; 10 mg/kg weekly for 8 weeks) was “mild inhibition of tumor growth”, the “histological analysis of tumors” value ([1]; 10 mg/kg weekly, after 8 weeks) was “reduced mitotic index and increased amount of necrotic tissue” and the average tumor weight ([1]; 10 mg/kg weekly, at 8 weeks (saline control about 15 g)) was “about 7 g”. For the same compound, the “body weight (clinical toxicity)” value ([1]; 15 mg/kg weekly) was “steady weight gain equivalent to that of a non-tumor bearing mice”, the tumor burden ([1]; 15 mg/kg weekly, after 2 additional injections (7)) was “tumor burden was eradicated in one mouse and the tumor size was reduced in the others” and the tumor progression ([1]; 15 mg/kg weekly, after 5 injections) was “almost static”. For the same compound, the “histological analysis of tumor” value ([1]; 15 mg/kg weekly, after treatment) was “very low mitotic index and extensive necrosis”, the “TS activity, COUNTS/MG PROTEIN” value ([2]; weekly 10 mg/kg) was 17641 counts/mg protein and the “TS activity, COUNTS/MG PROTEIN” value ([2]; weekly 15 mg/kg) was 8591 counts/mg protein.
